From US12522583B2, “Benzimidazole derivatives and aza-benzimidazole derivatives as Janus kinase 2 inhibitors and uses thereof” (Dana-Farber Cancer Institute, Inc., priority 2018, dated 2026)

What was measured:
Test in all cases: KINOMEscan
Assay type in all cases: binding
Details in all cases: read-out: percent control
[1] = target: FGFR1 (Homo sapiens (Human), UniProt P11362)
Source text: (§1) Example 2. In Vitro Kinase Selectivity Profiling of the Compounds of the Present Disclosure

[2] = target: EGFR(L747-E749del, A750P) (Homo sapiens (Human), UniProt P00533, A750P/DEL747-749)
Source text: as §1

[3] = target: PIK3C2B (Homo sapiens (Human), UniProt O00750)
PIK3C2B, sequence (O00750 whole entry): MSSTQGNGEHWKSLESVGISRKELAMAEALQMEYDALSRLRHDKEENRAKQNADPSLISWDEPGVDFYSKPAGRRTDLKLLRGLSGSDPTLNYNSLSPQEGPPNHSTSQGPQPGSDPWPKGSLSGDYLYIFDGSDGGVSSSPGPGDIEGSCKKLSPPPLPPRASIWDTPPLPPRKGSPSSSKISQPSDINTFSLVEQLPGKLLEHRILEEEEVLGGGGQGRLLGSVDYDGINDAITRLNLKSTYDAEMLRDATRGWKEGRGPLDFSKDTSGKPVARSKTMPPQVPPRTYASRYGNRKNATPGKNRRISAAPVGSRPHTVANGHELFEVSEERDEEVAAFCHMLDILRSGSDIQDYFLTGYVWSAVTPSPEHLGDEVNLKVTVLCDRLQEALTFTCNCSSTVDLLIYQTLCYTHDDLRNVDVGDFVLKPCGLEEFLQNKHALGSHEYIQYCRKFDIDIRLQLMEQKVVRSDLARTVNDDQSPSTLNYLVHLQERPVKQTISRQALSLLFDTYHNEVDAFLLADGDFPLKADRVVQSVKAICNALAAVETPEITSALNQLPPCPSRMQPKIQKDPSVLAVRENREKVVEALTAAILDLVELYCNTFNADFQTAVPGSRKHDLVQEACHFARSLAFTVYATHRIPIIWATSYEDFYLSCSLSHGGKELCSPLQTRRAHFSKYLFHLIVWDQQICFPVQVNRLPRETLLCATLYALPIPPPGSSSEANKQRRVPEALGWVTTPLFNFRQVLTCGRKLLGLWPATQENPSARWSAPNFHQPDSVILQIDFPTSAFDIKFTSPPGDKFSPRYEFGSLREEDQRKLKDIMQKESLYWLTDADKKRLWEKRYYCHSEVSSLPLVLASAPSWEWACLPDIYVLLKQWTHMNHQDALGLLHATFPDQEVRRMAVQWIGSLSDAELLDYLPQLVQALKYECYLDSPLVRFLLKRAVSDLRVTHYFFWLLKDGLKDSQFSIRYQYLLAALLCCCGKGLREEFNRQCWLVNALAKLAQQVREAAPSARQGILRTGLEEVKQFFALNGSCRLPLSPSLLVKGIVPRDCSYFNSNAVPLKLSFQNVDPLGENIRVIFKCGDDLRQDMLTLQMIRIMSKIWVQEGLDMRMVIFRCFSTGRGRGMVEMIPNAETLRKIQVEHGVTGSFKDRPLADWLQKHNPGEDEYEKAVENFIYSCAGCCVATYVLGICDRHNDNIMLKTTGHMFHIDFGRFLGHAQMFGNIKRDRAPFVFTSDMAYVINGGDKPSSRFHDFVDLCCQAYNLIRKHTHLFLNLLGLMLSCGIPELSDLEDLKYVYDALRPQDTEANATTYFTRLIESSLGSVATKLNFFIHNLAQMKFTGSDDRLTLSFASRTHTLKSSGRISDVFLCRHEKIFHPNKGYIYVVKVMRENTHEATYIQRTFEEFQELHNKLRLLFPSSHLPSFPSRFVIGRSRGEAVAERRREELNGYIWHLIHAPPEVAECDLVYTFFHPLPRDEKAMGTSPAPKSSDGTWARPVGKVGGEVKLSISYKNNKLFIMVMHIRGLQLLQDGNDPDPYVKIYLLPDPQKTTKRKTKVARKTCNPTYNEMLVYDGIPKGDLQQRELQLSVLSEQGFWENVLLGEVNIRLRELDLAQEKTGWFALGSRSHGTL
Source text: as §1

[4] = target: QSK (Homo sapiens (Human), UniProt Q9Y2K2)
Source text: as §1

[5] = target: PIK3C2G (Homo sapiens (Human), UniProt O75747)
Source text: as §1

[6] = target: IRAK3 (Homo sapiens (Human), UniProt Q9Y616)
IRAK3, sequence (Q9Y616 whole entry): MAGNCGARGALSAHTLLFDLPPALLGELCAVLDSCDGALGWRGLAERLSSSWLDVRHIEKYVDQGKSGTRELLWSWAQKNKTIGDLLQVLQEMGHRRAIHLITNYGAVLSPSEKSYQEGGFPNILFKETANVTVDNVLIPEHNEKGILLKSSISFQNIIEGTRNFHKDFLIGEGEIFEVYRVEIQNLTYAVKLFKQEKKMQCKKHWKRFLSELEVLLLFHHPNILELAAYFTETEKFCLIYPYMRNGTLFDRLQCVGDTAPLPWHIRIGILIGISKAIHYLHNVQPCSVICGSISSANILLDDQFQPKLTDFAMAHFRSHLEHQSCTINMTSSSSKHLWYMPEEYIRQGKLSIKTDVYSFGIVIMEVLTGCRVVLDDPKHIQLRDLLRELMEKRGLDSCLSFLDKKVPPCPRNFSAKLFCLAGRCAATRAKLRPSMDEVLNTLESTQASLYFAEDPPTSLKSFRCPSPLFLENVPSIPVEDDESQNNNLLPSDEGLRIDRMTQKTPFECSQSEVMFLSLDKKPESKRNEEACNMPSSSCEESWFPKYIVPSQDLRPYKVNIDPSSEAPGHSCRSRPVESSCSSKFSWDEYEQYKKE
Source text: as §1

[7] = target: ALK (Homo sapiens (Human), UniProt Q9UM73)
Source text: as §1

[8] = target: CSNK1E (Homo sapiens (Human), UniProt P49674)
Source text: as §1

[9] = target: TNNI3K (Homo sapiens (Human), UniProt Q59H18)
Source text: as §1

[10] = target: RSK4(Kin.Dom.2-C-terminal) (Homo sapiens (Human), UniProt Q9UK32)
RSK4(Kin.Dom.2-C-terminal), sequence (Q9UK32 426-683 limits assumed): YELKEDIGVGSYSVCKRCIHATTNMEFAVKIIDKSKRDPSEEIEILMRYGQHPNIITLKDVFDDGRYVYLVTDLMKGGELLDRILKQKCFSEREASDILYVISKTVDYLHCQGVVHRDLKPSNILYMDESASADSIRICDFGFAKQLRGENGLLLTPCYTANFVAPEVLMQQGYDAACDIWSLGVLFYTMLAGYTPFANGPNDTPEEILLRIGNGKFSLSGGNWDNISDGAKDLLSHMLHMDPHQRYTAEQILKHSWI
Source text: as §1

[11] = target: TBK1 (Homo sapiens (Human), UniProt Q9UHD2)
TBK1, sequence (Q9UHD2 whole entry): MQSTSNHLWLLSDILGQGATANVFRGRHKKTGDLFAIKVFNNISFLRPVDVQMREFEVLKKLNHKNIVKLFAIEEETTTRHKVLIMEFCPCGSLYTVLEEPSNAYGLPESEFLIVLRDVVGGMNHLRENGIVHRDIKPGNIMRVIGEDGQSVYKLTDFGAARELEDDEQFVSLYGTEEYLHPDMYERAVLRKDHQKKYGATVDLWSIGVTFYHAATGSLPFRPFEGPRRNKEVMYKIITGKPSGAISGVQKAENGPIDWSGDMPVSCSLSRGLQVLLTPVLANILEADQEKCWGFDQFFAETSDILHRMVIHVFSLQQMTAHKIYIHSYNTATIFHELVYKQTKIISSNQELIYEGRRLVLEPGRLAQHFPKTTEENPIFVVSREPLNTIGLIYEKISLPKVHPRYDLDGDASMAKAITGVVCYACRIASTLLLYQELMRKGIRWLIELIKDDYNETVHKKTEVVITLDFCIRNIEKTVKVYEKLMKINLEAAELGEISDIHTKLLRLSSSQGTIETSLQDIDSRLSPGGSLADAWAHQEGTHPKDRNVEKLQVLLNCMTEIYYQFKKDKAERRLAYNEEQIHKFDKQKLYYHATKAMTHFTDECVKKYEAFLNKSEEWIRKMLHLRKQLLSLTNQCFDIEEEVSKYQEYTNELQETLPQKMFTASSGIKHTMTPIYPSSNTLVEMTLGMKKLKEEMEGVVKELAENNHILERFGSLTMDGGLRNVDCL
Source text: as §1

[12] = target: PDGFRB (Homo sapiens (Human), UniProt P09619)
PDGFRB, sequence (P09619 33-1106): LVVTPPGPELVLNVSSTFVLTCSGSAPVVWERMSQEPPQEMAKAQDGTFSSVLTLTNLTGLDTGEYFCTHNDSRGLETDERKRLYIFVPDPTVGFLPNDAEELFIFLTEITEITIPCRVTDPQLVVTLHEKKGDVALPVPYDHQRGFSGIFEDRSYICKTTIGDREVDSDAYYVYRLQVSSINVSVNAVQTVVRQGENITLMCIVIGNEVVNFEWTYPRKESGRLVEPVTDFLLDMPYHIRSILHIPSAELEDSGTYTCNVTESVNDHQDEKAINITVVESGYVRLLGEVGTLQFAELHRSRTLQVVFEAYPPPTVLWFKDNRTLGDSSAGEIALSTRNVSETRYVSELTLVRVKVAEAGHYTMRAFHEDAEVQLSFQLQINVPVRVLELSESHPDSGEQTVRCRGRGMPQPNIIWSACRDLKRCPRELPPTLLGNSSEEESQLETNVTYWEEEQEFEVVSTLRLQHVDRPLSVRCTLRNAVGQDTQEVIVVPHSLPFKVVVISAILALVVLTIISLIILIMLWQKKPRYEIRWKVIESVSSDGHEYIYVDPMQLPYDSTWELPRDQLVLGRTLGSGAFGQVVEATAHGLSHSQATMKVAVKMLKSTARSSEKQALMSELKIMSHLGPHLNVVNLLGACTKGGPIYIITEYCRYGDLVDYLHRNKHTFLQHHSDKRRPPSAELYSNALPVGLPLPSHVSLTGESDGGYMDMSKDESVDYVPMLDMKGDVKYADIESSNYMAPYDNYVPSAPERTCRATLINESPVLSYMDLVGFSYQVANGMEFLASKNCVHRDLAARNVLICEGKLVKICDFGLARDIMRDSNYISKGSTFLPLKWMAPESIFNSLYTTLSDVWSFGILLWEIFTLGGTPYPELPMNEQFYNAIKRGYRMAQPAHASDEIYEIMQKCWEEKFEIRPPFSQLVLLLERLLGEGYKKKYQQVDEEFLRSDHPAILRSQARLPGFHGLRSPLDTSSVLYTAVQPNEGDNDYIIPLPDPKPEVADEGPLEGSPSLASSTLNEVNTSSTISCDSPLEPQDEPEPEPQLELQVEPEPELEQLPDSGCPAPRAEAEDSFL
Source text: as §1

[13] = target: EGFR(S752-I759del) (Homo sapiens (Human), UniProt P00533, DEL752-759)
Source text: as §1

[14] = target: PCTK3 (Homo sapiens (Human), UniProt Q07002)
Source text: as §1

[15] = target: WNK3 (Homo sapiens (Human), UniProt Q9BYP7)
Source text: as §1

[16] = target: CDKL3 (Homo sapiens (Human), UniProt Q8IVW4)
Source text: as §1

[17] = target: MAP3K15 (Homo sapiens (Human), UniProt Q6ZN16)
Source text: as §1

[18] = target: ALK(C1156Y) (Homo sapiens (Human), UniProt Q9UM73, C1156Y)
Source text: as §1

[19] = target: AMPK-alpha1 (Homo sapiens (Human), UniProt Q13131)
Source text: as §1

[20] = target: KIT(V559D) (Homo sapiens (Human), UniProt P10721, V559D)
Source text: as §1

[21] = target: DYRK1A (Homo sapiens (Human), UniProt Q13627)
Source text: as §1

[22] = target: MKNK1 (Homo sapiens (Human), UniProt Q9BUB5)
Source text: as §1

[23] = target: CDKL5 (Homo sapiens (Human), UniProt O76039)
Source text: as §1

[24] = target: ACVR2A (Homo sapiens (Human), UniProt P27037)
ACVR2A, sequence (P27037 20-513): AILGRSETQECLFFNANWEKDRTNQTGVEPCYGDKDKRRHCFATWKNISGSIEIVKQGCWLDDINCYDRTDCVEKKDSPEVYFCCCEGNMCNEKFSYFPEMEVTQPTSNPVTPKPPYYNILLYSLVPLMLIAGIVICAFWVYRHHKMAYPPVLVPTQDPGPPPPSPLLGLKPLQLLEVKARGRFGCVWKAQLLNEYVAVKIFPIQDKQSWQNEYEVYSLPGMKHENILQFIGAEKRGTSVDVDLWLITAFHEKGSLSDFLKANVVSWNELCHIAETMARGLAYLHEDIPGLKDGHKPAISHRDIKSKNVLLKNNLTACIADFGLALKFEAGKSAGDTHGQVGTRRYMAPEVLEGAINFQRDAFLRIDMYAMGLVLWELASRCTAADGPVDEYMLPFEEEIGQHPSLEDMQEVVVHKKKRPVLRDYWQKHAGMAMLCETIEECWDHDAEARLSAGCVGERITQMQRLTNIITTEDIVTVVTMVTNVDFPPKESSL
Source text: as §1

[25] = target: STK35 (Homo sapiens (Human), UniProt Q8TDR2)
Source text: as §1

[26] = target: EPHB2 (Homo sapiens (Human), UniProt P29323)
Source text: as §1

[27] = target: MEK2 (Homo sapiens (Human), UniProt P36507)
Source text: as §1

SMILES | remaining binding at 1 µM [1] [%] | remaining binding at 1 µM [2] [%] | remaining binding at 1 µM [3] [%] | remaining binding at 1 µM [4] [%] | remaining binding at 1 µM [5] [%] | remaining binding at 1 µM [6] [%] | remaining binding at 1 µM [7] [%] | remaining binding at 1 µM [8] [%] | remaining binding at 1 µM [9] [%] | remaining binding at 1 µM [10] [%] | remaining binding at 1 µM [11] [%] | remaining binding at 1 µM [12] [%] | remaining binding at 1 µM [13] [%] | remaining binding at 1 µM [14] [%] | remaining binding at 1 µM [15] [%] | remaining binding at 1 µM [16] [%] | remaining binding at 1 µM [17] [%] | remaining binding at 1 µM [18] [%] | remaining binding at 1 µM [19] [%] | remaining binding at 1 µM [20] [%] | also measured
CCN1CCN(Cc2ccc(Nc3nc4ccc(Oc5ccnc(NC(C)=O)c5)cc4n3C)cc2C(F)(F)F)CC1 [Compound I-2] | 86 | 66 | 85 | 60 | 80 | 91 | 76 | 90 | 23 | 86 | 73 | 0 | 100 | 78 | 100 | 7.6 | 88 | 96 | 93 | 0 | remaining binding at 1 µM [21]: 92%; remaining binding at 1 µM [22]: 95%; remaining binding at 1 µM [23]: 96%; remaining binding at 1 µM [24]: 100%; remaining binding at 1 µM [25]: 100%; remaining binding at 1 µM [26]: 81%; remaining binding at 1 µM [27]: 77%
CCN1CCN(Cc2ccc(Nc3nc4ccc(Oc5ccnc(NC(C)=O)c5)c(C)c4n3C)cc2C(F)(F)F)CC1 [Compound I-6, N-(4-(2-(4-((4-ethylpiperazin-1-yl)methyl)-3-(trifluoromethyl)phenylamino)-1,7-dimethyl-1H-benzo[d]imidazol-6-yloxy)pyridin-2-yl)acetamide] | 75 | 100 | 97 | 85 | 86 | 91 | 90 | 66 | 51 | 97 | 100 | 0.05 | 94 | 76 | 100 | 0.4 | 60 | 92 | 95 | 0.15 | remaining binding at 1 µM [21]: 100%; remaining binding at 1 µM [22]: 80%; remaining binding at 1 µM [23]: 92%; remaining binding at 1 µM [24]: 100%; remaining binding at 1 µM [25]: 100%; remaining binding at 1 µM [26]: 100%; remaining binding at 1 µM [27]: 100%
